Data taken from US11453677B2 (priority 2016, dated 2022).

Columns and labels:
Experiment in all cases: cells
Assay type in all cases: cell-based
[1] = tested on: influenza A virus minigenome (PB2, PB1, PA, NP) RNP_CAL in 293T cells; conditions: HEK-293T, 48 h, read-out: RNP_CAL_EC50
[2] = tested on: influenza A virus minigenome (PB2, PB1, PA, NP) RNP_Alaska in 293T cells; conditions: HEK-293T, 48 h, read-out: RNP_Alaska EC50
[3] = tested on: influenza virus minigenome (PB2, PB1, PA, NP) RNP_Hubei in 293T cells; conditions: unidentified influenza virus, HEK-293T, 48 h, read-out: RNP_Hubei EC50

SMILES | EC50 [1] | EC50 [2] | EC50 [3]
CSc1cccc([C@H](c2ccc(F)cc2)[C@H]2Cn3ccnc3-c3c(O)c(=O)cnn32)c1 [Example 28, (S)-6-((S)-(4-fluorophenyl)(3-(methylthio)phenyl)methyl)-11-hydroxy-5,6-dihydro-10H-imidazo[2′,1′:3,4]pyrazino[1,2-b]pyridazin-10-one] | 81 nM | 72 nM | 78 nM
O=c1cnn2c(c1O)-c1nccn1C[C@@H]2[C@@H](c1ccc(F)cc1)c1ccccc1Cl [Example 29, (S)-6-((S)-(2-chlorophenyl)(4-fluorophenyl)methyl)-11-hydroxy-5,6-dihydro-10H-imidazo[2′,1′:3,4]pyrazino[1,2-b]pyridazin-10-one] | 72 nM | 70 nM | 58 nM
O=c1cnn2c(c1O)-c1nccn1C[C@@H]2[C@@H](c1ccc(F)cc1)c1cccc(Cl)c1 [Example 31, (S)-6-((S)-(3-chlorophenyl)(4-fluorophenyl)methyl)-11-hydroxy-5,6-dihydro-10H-imidazo[2′,1′:3,4]pyrazino[1,2-b]pyridazin-10-one] | 37 nM | 34 nM | 64 nM
O=c1cnn2c(c1O)-c1nccn1C[C@@H]2[C@@H](c1ccc(F)cc1)c1ccc(C(F)(F)F)cc1 [Example 32, (S)-6-((R)-(4-fluorophenyl)(4-(trifluoromethyl)phenyl)methyl)-11-hydroxy-5,6-dihydro-10H-imidazo[2′,1′:3,4]pyrazino[1,2-b]pyridazin-10-one] | 250 nM | 280 nM | 720 nM
O=c1cnn2c(c1O)-c1nccn1C[C@@H]2[C@@H](c1ccc(F)cc1)c1ccc(Cl)cc1 [Example 33, (S)-6-((S)-(4-chlorophenyl)(4-fluorophenyl)methyl)-11-hydroxy-5,6-dihydro-10H-imidazo[2′,1′:3,4]pyrazino[1,2-b]pyridazin-10-one] | 110 nM | 87 nM | 270 nM
O=c1cnn2c(c1O)-c1nccn1C[C@@H]2[C@@H](c1ccc(F)cc1)c1cc(F)cc(F)c1 [Example 34, (S)-6-((S)-(3,5-difluorophenyl)(4-fluorophenyl)methyl)-11-hydroxy-5H-imidazo[2′,1′:3,4]pyrazino[1,2-b]pyridazin-10(6H)-one] | 25 nM | 33 nM | 34 nM
Cc1ccccc1[C@H](c1ccc(F)cc1Br)[C@H]1Cn2ccnc2-c2c(O)c(=O)cnn21 [Example 35, (S)-6-((R)-(2-bromo-4-fluorophenyl)(o-tolyl)methyl)-11-hydroxy-5,6-dihydro-10H-imidazo[2′,1′:3,4]pyrazino[1,2-b]pyridazin-10-one] | 50 nM | 98 nM | 110 nM
O=c1cnn2c(c1O)-c1nccn1C[C@@H]2[C@H](c1cccc(F)c1)c1ccc(F)cc1Br [Example 36, (S)-6-((R)-(2-bromo-4-fluorophenyl)(3-fluorophenyl)methyl)-11-hydroxy-5,6-dihydro-10H-imidazo[2′,1′:3,4]pyrazino[1,2-b]pyridazin-10-one] | 27 nM | 21 nM | 63 nM
Cc1cccc([C@H](c2ccc(F)cc2)[C@H]2Cn3ccnc3-c3c(O)c(=O)cnn32)c1 [Example 38, (S)-6-((S)-(4-fluorophenyl)(m-tolyl)methyl)-11-hydroxy-5,6-dihydro-10H-imidazo[2′,1′:3,4]pyrazino[1,2-b]pyridazin-10-one] | 49 nM | 43 nM | 97 nM
O=c1cnn2c(c1O)-c1nccn1C[C@@H]2[C@H](c1ccc(F)cc1)c1ccc(F)cc1Br [Example 39, (S)-6-((R)-(2-bromo-4-fluorophenyl)(4-fluorophenyl)methyl)-11-hydroxy-5,6-dihydro-10H-imidazo[2′,1′:3,4]pyrazino[1,2-b]pyridazin-10-one] | 33 nM | 25 nM | 53 nM
Cc1ccccc1[C@H](c1ccc(F)cc1)[C@H]1Cn2ccnc2-c2c(O)c(=O)cnn21 [Example 40, (S)-6-((S)-(4-fluorophenyl)(o-tolyl)methyl)-11-hydroxy-5,6-dihydro-10H-imidazo[2′,1′:3,4]pyrazino[1,2-b]pyridazin-10-one] | 32 nM | 20 nM | 35 nM
CS(=O)(=O)c1cccc([C@H](c2ccc(F)cc2)[C@H]2Cn3ccnc3-c3c(O)c(=O)cnn32)c1 [Example 42, (S)-6-((S)-(4-fluorophenyl)(3-(methylsulfonyl)phenyl)methyl)-11-hydroxy-5,6-dihydro-10H-imidazo[2′,1′:3,4]pyrazino[1,2-b]pyridazin-10-one] | 2800 nM | 3600 nM | 3800 nM
N#Cc1cccc([C@H](c2ccc(F)cc2)[C@H]2Cn3ccnc3-c3c(O)c(=O)cnn32)c1 [Example 43, 3-((S)-(4-fluorophenyl)((S)-11-hydroxy-10-oxo-5,6-dihydro-10H-imidazo[2′,1′:3,4]pyrazino[1,2-b]pyridazin-6-yl)methyl)benzonitrile] | 39 nM | 140 nM | 170 nM
N#Cc1ccccc1[C@H](c1ccc(F)cc1)[C@H]1Cn2ccnc2-c2c(O)c(=O)cnn21 [Example 44, 2-((S)-(4-fluorophenyl)((S)-11-hydroxy-10-oxo-5,6-dihydro-10H-imidazo[2′,1′:3,4]pyrazino[1,2-b]pyridazin-6-yl)methyl)benzonitrile] | 300 nM | 550 nM | 310 nM
N#Cc1ccc([C@H](c2ccc(F)cc2)[C@H]2Cn3ccnc3-c3c(O)c(=O)cnn32)cc1 [Example 45, 4-((R)-(4-fluorophenyl)((S)-11-hydroxy-10-oxo-5,6-dihydro-10H-imidazo[2′,1′:3,4]pyrazino[1,2-b]pyridazin-6-yl)methyl)benzonitrile] | 42 nM | 76 nM | 160 nM
N#Cc1cccc([C@H](c2cccc(F)c2)[C@H]2Cn3ccnc3-c3c(O)c(=O)cnn32)c1 [Example 46, 3-((R)-(3-fluorophenyl)((S)-11-hydroxy-10-oxo-5,6-dihydro-10H-imidazo[2′,1′:3,4]pyrazino[1,2-b]pyridazin-6-yl)methyl)benzonitrile] | 64 nM | 150 nM | 190 nM
O=c1cnn2c(c1O)-c1nc(Br)c(Br)n1C[C@@H]2C(c1ccc(F)cc1)c1ccc(F)cc1 [Example 48, (S)-6-(bis(4-fluorophenyl)methyl)-2,3-dibromo-11-hydroxy-5,6-dihydro-10H-imidazo[2′,1′:3,4]pyrazino[1,2-b]pyridazin-10-one] | 4300 nM | 5000 nM | 12000 nM
N#Cc1cnc2n1C[C@H](C(c1ccc(F)cc1)c1ccc(F)cc1)n1ncc(=O)c(O)c1-2 [Example 49, (S)-6-(bis(4-fluorophenyl)methyl)-11-hydroxy-10-oxo-5,6-dihydro-10H-imidazo[2′,1′:3,4]pyrazino[1,2-b]pyridazine-3-carbonitrile] | 820 nM | 870 nM | 560 nM
O=c1cnn2c(c1O)-c1ncc(CO)n1C[C@@H]2C(c1ccc(F)cc1)c1ccc(F)cc1 [Example 50, (S)-6-(bis(4-fluorophenyl)methyl)-11-hydroxy-3-(hydroxymethyl)-5,6-dihydro-10H-imidazo[2′,1:3,4]pyrazino[1,2-b]pyridazin-10-one] | 100 nM | 430 nM | 700 nM
